Data taken from patent US5846942A, “Cholecystokinin antagonists, their preparation and therapeutic use” (Warner-Lambert Company, priority 1996, dated 1998).

target: T1, Central CCK Receptors (Mus musculus, UniProt P56481); test: Binding to central CCK receptors, displacement of tritiated pentagastrin from cerebral cortical membranes of male CFLP mice; design: species or system mouse (male CFLP); details: cerebral cortexes taken from male CFLP mice; 2 nM tritiated-pentagastrin
T1 construct: from tissue; host or cells: cerebral cortex membranes of male CFLP mice (30-40 g)
T1 sequence (P56481 1-453): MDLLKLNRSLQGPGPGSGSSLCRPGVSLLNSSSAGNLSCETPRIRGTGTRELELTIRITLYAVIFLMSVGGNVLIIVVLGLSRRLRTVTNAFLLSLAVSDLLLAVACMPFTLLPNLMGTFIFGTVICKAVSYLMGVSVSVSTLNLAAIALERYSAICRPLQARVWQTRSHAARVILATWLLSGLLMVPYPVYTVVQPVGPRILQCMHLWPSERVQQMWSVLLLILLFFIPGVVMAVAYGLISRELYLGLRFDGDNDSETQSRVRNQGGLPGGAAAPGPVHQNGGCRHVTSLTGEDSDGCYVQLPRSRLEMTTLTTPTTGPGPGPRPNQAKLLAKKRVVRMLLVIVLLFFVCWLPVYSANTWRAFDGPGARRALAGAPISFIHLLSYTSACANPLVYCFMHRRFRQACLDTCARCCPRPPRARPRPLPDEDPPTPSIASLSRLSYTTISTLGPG
Procedure: The biological activity of compounds of the present invention was evaluated employing an initial screening test which rapidly and accurately measured the binding of the tested compound to known CCK receptor sites. […] (See Hays et al, Neuropeptides 1:53-62, 1980; and Satuer et al, Science 208:1155-1156, 1980).
In this screening test, the cerebral cortices taken from male CFLP mice weighing between 30-40 g were dissected on ice, weighed, and homogenized in 10 volumes of 50 mM Tris-HCl buffer (pH 7.4 at 0°-4° C.). The resulting suspension was centrifuged, the supernate was discarded, and the pellet was washed by resuspension in Tris-HCl buffer followed by recentrifugation. The final pellet was resuspended in 20 volumes of […] Hepes buffer (pH 7.2 at 23° C.) containing 130 mM NaCl, […] KCl, […] MgCl2, […] EDTA, 5 mg/mL bovine albumin, and bacitracin (0.25 mg/mL).
In saturation studies, cerebral cortical membranes were incubated at 23° C. for 120 minutes in a final volume of 500 μL of Hepes incubation buffer (pH 7.2) together with […] tritiated-pentagastrin (Amersham International, England).
In the displacement experiments, membranes were incubated with a single concentration (2 nM) of ligand, together with increasing concentrations (10^-11 to […]) of competitive test compound. In each case, the nonspecific binding was defined as that persisting in the presence of the unlabeled octapeptide CCK26-33 (10^-6 M)
Following incubation, radioactivity bound to membranes was separated from that free in solution by rapid filtration through Whatman GF/B filters and washed three times with 4 mL of ice cold Tris-HCl buffer. Filters from samples incubated with tritiated-pentagastrin were placed in polyethylene vials with 4 mL of scintillation cocktail, and the radioactivity was estimated by liquid scintillation spectrometry (efficiency 47-52%).
Saturation curves for specific tritiated- pentagastrin binding to mouse cortical membranes were analyzed by the methods of Scatchard (Ann. New York Acad. Sci. 51:660-672, 1949, and Hill (J. Physiol. 40:IV-VIII, 1910), to provide estimates for the maximum number of binding sites (Bmax) and the equilibrium dissociation constant (Ka).
In displacement experiments, inhibition curves were analyzed by either logit-log plots or the iterative curve fitting computer program ALLFIT (DeLean, Munson and Redbard, 1978) to provide estimates of the IC50 and nH (apparent Hill coefficient) values).
The inhibition constant (Ki) of the test compound was then calculated according to the Cheng-Prusoff equation: [formula] where [L] is the concentration of radiolabel and Ka is the equilibrium dissociation constant.

SMILES | Ki
C[C@](Cc1c[nH]c2ccccc12)(NC(=O)OC1C2CC3CC(C2)CC1C3)C(=O)NC1CCCCC1C#N (some centres unmarked) [Example 116, Carbamic acid [2-[(2-cyanocyclohexyl)amino]-1-(1H-indol-3-ylmethyl)-1-methyl-2-oxoethyl]-1H-tricyclo-[3.3.1.1^3,7]dec-2-yl ester] | 3.5 nM
C[C@](Cc1c[nH]c2ccccc12)(NC(=O)OC1C2CC3CC(C2)CC1C3)C(=O)NCCC(=O)N[C@@H](Cc1ccccc1)C(=O)OCc1ccccc1 (stereo partly drawn) [Example 30, L-Phenylalanine,N-[N-[α-methyl-N-[(tricyclo[3.3.1.1^3,7]dec-2-yloxy)carbonyl]-d-tryotoohyl]-β-alanyl]-phenylmethyl ester] | > 10000 nM
CC(CNC(=O)O[C@@H]1C[C@@H]2CC[C@@]1(C)C2(C)C)(Cc1c[nH]c2ccccc12)C(=O)N[C@H](COC(=O)CCC(=O)O)Cc1ccccc1 (stereo partly drawn) [Example 56, Butanedioic acid, mono 2-[[2-(1H-indol-3-ylmethyl)-2-methyl-1-oxo-3-[[(1,7,7-trimethylbicyclo[2.2.1]hept-2-yloxy)carbonyl]-amino]propyl]amino]-3-phenylpropyl ester (Bicyclo system is 1S-endo, phenvlmethyl center is S. other center is RS)] | 23 nM
C[C@](Cc1c[nH]c2ccccc12)(NC(=O)OC1C2CC3CC(C2)CC1C3)C(=O)NC1(CO)CCCC1 (stereo partly drawn) [Example 119, Tricyclo[3.3.1.1^3,7]dec-2-yl ester (R) [2-[[1-(hydroxymethyl)cyclopentyl]amino]-1-(1H-indol-3-ylmethyl)-1-methyl-2-oxoethyl]carbamate] | 180 nM
COC[C@@H]1CCCN1NC(=O)[C@@](C)(Cc1c[nH]c2ccccc12)NC(=O)OC1C2CC3CC(C2)CC1C3 (stereo partly drawn) [Example 112, Tricyclo[3.3.1.1^3.7]dec-2-yl ester [2S-(R*,S*)1 N-[1-(1H-indol-3-ylmethyl)-2-[[2-(methoxymethyl)-1-pyrrolidinyl]amino]-1-methyl-2-oxoethyl]carbamate] | 73 nM
N#CC(=Cc1c[nH]c2ccccc12)C(=O)NCCc1ccccc1 [Example 58] | 110 nM
C[C@](Cc1c[nH]c2ccccc12)(NC(=O)OC1C2CC3CC(C2)CC1C3)C(=O)NCCC(=O)N[C@@H](Cc1ccccc1)C(=O)O (stereo partly drawn) [Example 33, S-Phenylalanine N-[N-[α-methyl-N-[(tricyclo-[3.3.1.1^3,7]dec-2-yloxy)carbonyl]-R-tryptophyl]-β-alanyl]] | 22 nM
CC1CCCCC1NC(=O)C(C)(Cc1c[nH]c2ccccc12)NC(=O)OC1C2CC3CC(C2)CC1C3 (centres unmarked) [Example 117, Tricyclo[3.3.1.1^3,7]dec-2-yl ester[1-(1H-indol-3-ylmethyl)-1-methyl-2[(2-methylcyclohexyl)amino]-2-oxoethyl]carbamate] | 39 nM
O=C(N[C@@H](CN[C@H](CO)Cc1ccccc1)Cc1c[nH]c2ccccc12)OC1C2CC3CC(C2)CC1C3 (stereo partly drawn) [Example 1, Tricyclo[3.3.1.1^3,7]dec-2-yl[S-(R)]-[2-[[1 - (hydroxy-methyl)-2-phenylethyl]amino]-1-(1H-indol-3-ylmethyl)ethyl]carbamate] | 11500 nM
C[C@](CC(=O)OCc1ccccc1)(Cc1c[nH]c2ccccc12)NC(=O)OC1C2CC3CC(C2)CC1C3 (some centres unmarked) [Example 17] | 17 nM
C[C@](Cc1c[nH]c2ccccc12)(NC(=O)OC1C2CC3CC(C2)CC1C3)C(=O)NC1(CO)CCCCC1 (some centres unmarked) [Example 122] | 59 nM
C[C@](Cc1c[nH]c2ccccc12)(NC(=O)OC1C2CC3CC(C2)CC1C3)C(=O)NC1CCCCC1C(=O)O (stereo partly drawn) [Example 115, [1S-[α(S*),2B]] and [1R-[α(R*),28β]]^sP 2-[[3-(1H-indol-3-yl)-2-methyl-1-oxo-2-[(tricyclo[3.3.1.1^3,7]dec-2-yloxy)carbonyl]amino]propyl]amino]cyclhexanecarboxylic acid] | 1 nM
C[C@@](Cc1c[nH]c2ccccc12)(NC(=O)OC1C2CC3CC(C2)CC1C3)C(=O)NCCC(=O)N[C@@H](Cc1ccccc1)C(=O)O (stereo partly drawn) [Example 34, L-Phenylalanine, N-[N-[α-methyl-N-[(tricyclo-[3.3.1.1^3,7]dec-2-yloxy)carbonyl]-L-tryptophyl]-β-alanyl]-] | 560 nM
C[C@@](Cc1c[nH]c2ccccc12)(NC(=O)OC1C2CC3CC(C2)CC1C3)C(=O)NCCC(=O)N[C@H](Cc1ccccc1)C(N)=O (some centres unmarked) [Example 28] | 1400 nM

The remaining compounds from weak to strong by Ki, led by results:

Ki | SMILES
1200 nM | C[C@@](Cc1c[nH]c2ccccc12)(NC(=O)OC1C2CC3CC(C2)CC1C3)C(=O)NCCC(=O)N[C@@H](Cc1ccccc1)C(=O)OCc1ccccc1 (stereo partly drawn) [Example 31, Propanoic acid, 2-[[3-[[3-(1H-indol-3-yl)-2-methyl-1-oxo-2-[[(tricyclo[3.3.1.1^3,7]dec-2-yloxy)carbonyl]amino]propyl]amino]-1-oxopropyl]-amino]-3-phenyl-, phenylmethyl ester, [S-(R*,R*)]-]
1120 nM | O=C(N[C@H](CN[C@H](CO)Cc1ccccc1)Cc1c[nH]c2ccccc12)OC1C2CC3CC(C2)CC1C3 (some centres unmarked) [Example 2]
1100 nM | C[C@@](Cc1c[nH]c2ccccc12)(NC(=O)OC1C2CC3CC(C2)CC1C3)C(=O)NCCC(=O)N[C@H](CO)Cc1ccccc1 (relative stereo) [Example 24, Carbamic acid, [1-(1H-indol-3-ylmethyl)-2-[[3-[[1-hydroxymethyl)-2-iphenylethyl]amino]-3-oxopropyl]-amino]-1-methyl-2-oxoethyl]-, tricyclo[3.3.1.1^3,7]dec-2-ylester, [S-(R*,R*)]-]
550 nM | C[C@](Cc1c[nH]c2ccccc12)(NC(=O)OC1C2CC3CC(C2)CC1C3)C(=O)NCCC(=O)N[C@H](Cc1ccccc1)C(N)=O (stereo partly drawn) [Example 25, D-Phenylalanamide, α-methyl-N-[(tricyclo[3.3.1.1^3,7]-dec-2-yloxv)carbonyl]-D-tryotophyl-β-alanyl-]
240 nM | COC(=O)[C@@H](Cc1ccccc1)NC(=O)CCNC(=O)[C@@](C)(Cc1c[nH]c2ccccc12)NC(=O)OC1C2CC3CC(C2)CC1C3 (stereo partly drawn) [Example 29, 12-Oxa-2,5,9-triazatridecanoic acid, 3-(1H-indol-3-ylmethyl)-3-methyl-4.8.11-trioxo-10-(phenvlmethyl)-, tricyclo[3.3.1.1^3,7]dec-2-vl ester, [R-(R*,R*)]-]
220 nM | CC(CNCC(O)c1ccccc1)(Cc1c[nH]c2ccccc12)NC(=O)OC1C2CC3CC(C2)CC1C3 (centres unmarked) [Example 5, Tricyclo[3.3.1.1^3,7]dec-2-yl [1-[(2-hydroxy-2-phenyl-ethyl)amino]-3-(1H-indol-3-yl)-2-methylprop-2-yl]-carbamate]
92 nM | C[C@](Cc1c[nH]c2ccccc12)(NC(=O)OC1C2CC3CC(C2)CC1C3)C(=O)NCCC(=O)N[C@@H](Cc1ccccc1)C(N)=O (stereo partly drawn) [Example 26, L-Phenylalaninamide, α-methyl-N-[(tricyclo [3.3.1.1^3,7]-dec-2-yloxy)carbonyl]-D-tryptophvl-β-alanyl-]
40 nM | C[C@](Cc1c[nH]c2ccccc12)(NC(=O)OC1C2CC3CC(C2)CC1C3)C(=O)NC1(C(=O)O)CCCCC1 (stereo partly drawn) [Example 120, (R)-1-[[2-(1H-indol-3-ylmethyl)-2-methyl-1-oxo-2-[[(tricyclo[3.3.1.1^3,7]dec-2-yloxy)carbonyl]amino]ethyl]amino]cyclohexanoic acid]
2 nM | CC(Cc1c[nH]c2ccccc12)(NC(=O)OC1C2CC3CC(C2)CC1C3)C(=O)NC1CCCCC1C(=O)O (centres unmarked) [Example 121, 2-[[3-(1H-indol-3-yl)-2-methyl-1-oxo-2-[[(tricyclo-[3.3.1.1^3,7]dec-2-yloxy)carbonyl]amino]propyl]amino]cyclohexanecarboxylic acid]
